Usually Kd stands for the constant that tells how readily two partners part at equilibrium.

This is an account of results in PubChem BioAssay AID1648 (Sanford-Burnham Center for Chemical Genomics, 2009).

SMILES strings stand for the structures. Active and inactive are the calls of the source. The rule behind the calls is not given here.

The test addresses Serine/threonine-protein kinase mTOR (Homo sapiens) (UniProt P42345). In words: mTOR FRB domain ligand binding – biophysical, NMR (AID 1648). The note with it: NMR binding to FRB domain, chemical shift.

Serine/threonine-protein kinase mTOR (Homo sapiens), sequence (P42345 2015-2114): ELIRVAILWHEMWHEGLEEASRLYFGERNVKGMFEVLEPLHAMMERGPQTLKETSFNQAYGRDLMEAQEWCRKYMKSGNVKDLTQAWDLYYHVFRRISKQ

`Nc1ccc(C(=O)NCC2CCCO2)cc1` (centres undefined): the Kd was > 4 mM (inactive).

In the case of `Cc1n[nH]c(C)c1CC(=O)O`, the Kd was > 4 mM (inactive).

`COc1ccc(-c2nc(C)sc2CC(=O)O)cc1`: the Kd was > 4 mM (inactive).

On to `NC(Cc1c[nH]c2ccccc12)C(=O)O` (centres undefined), for which the Kd is > 4 mM (inactive).

Regarding `COc1c(O)cc2c(c1O)[C@H]1O[C@H](CO)[C@@H](O)[C@H](O)[C@@H]1OC2=O`, the Kd is > 4 mM (inactive).

Consider `O=CN1CCN(C(=O)c2ccc(F)cc2)CC1`, for which the Kd is > 4 mM (inactive).

For `CC(=O)n1c(N)nc2ccccc21`, the Kd is > 4 mM (inactive).

Take `COc1cc(C(=S)N2CCCC2)cc(Cl)c1O`: the Kd is > 4 mM (inactive).

Regarding `COc1ccccc1NC(=O)C1CCC(=O)N1` (centres undefined), the Kd was > 4 mM (inactive).

Turning to `C[C@H]1[C@H](C)CC[C@]2(C(=O)O)CC[C@]3(C)C(=CCC4[C@@]5(C)C[C@@H](O)[C@H](O)[C@@](C)(CO)C5[C@H](O)C[C@]43C)[C@H]12` (some centres undefined), the Kd is > 4 mM (inactive).

As for `Oc1ccc(C(=S)N2CCCCC2)cc1Cl`, the Kd was > 4 mM (inactive).

As for `c1ccc(Cc2nnc3sc(-c4cccnc4)nn23)cc1`, the Kd is > 4 mM (inactive).

For the compound `CN(Cc1nc2ccccc2n1C)S(C)(=O)=O`, the Kd was > 4 mM (inactive).

On to `COc1ccccc1Nc1nncc(=O)[nH]1`, for which the Kd is > 4 mM (inactive).

With `CC1=NN(C(N)=S)C(C)(C)C1`, the Kd is > 4 mM (inactive).

`O=C1Cc2ccccc2N1c1ccccc1`: the Kd was > 4 mM (inactive).

Regarding `Nc1ncnc(Cl)c1[N+](=O)[O-]`, the Kd is > 4 mM (inactive).

On to `COC(CC(=O)O)c1nc2ccccc2s1` (centres undefined), for which the Kd was > 4 mM (inactive).

As for `Cc1cn2c(-c3cccnc3)nnc2s1`, the Kd was > 4 mM (inactive).

As for `CC(=O)Nc1ccc(S(=O)(=O)N(C)C)cc1`, the Kd is > 4 mM (inactive).

For the compound `CC(=O)O[C@@H]1CC2C(C)(C)C(=O)C=C[C@]2(C)C2CC[C@@]3(C)[C@H](c4ccoc4)OC(=O)[C@H]4O[C@]43[C@@]21C` (some centres undefined), the Kd is > 4 mM (inactive).

Turning to `CC1=C2C(O)C(=O)OC3CC4C(C)(C)C(=O)C=C[C@]4(C)C(CC1)[C@]23C` (some centres undefined), the Kd was > 4 mM (inactive).

In the case of `CNc1ccccc1C(=O)O`, the Kd is > 4 mM (inactive).

As for `O=C(NCC1CCCCC1)c1ccco1`, the Kd was > 4 mM (inactive).

Turning to `NC(=O)CN1CCC(c2nc3ccccc3[nH]2)CC1`, the Kd is > 4 mM (inactive).

Turning to `O=C(Cc1ccccc1)Nc1c[nH]c(=O)[nH]c1=O`, the Kd is > 4 mM (inactive).

Turning to `NCc1cccc2nsnc12`, the Kd is > 4 mM (inactive).

In the case of `CC(=O)Oc1ccc(/C=C/c2cc(OC(C)=O)cc(OC(C)=O)c2)cc1`, the Kd is > 4 mM (inactive).

As to `O=C(Nc1ccc2c(c1)OCO2)c1cccc(F)c1`, the Kd is > 4 mM (inactive).

As for `Cc1[nH]c2ccccc2c(=O)c1CO`, the Kd was > 4 mM (inactive).

For the compound `NCCc1nc2ccccc2[nH]1`, the Kd was > 4 mM (inactive).

On to `OCc1ccc(-n2ccnc2)cc1`, for which the Kd is > 4 mM (inactive).

For the compound `CC(=O)OC(C)(C)[C@@H]1Cc2cc3ccc(=O)oc3cc2O1`, the Kd is > 4 mM (inactive).

`O=[N+]([O-])c1ccc2c(c1)N([O-])C1(CCCCC1)[N+]2=O`: the Kd was > 4 mM (inactive).

On to `O=C1CS/C(=N/N=C2CCCC2)N1`, for which the Kd is > 4 mM (inactive).

Take `Nc1ccc(-n2cccn2)cc1`: the Kd was > 4 mM (inactive).

On to `CC(C)NC(=S)N1CCN(S(C)(=O)=O)CC1`, for which the Kd is > 4 mM (inactive).

For the compound `CN(C(=O)NC1CCS(=O)(=O)C1)C1CCCCC1` (centres undefined), the Kd is > 4 mM (inactive).

Take `O=C(Nc1ccon1)c1cccc(Cl)c1`: the Kd was > 4 mM (inactive).

In the case of `CC(=O)OCC(=O)[C@@]1(O)CCC2C3CC[C@@H]4C[C@H](OC(C)=O)CC[C@]4(C)C3C(=O)C[C@@]21C` (some centres undefined), the Kd was > 4 mM (inactive).

For `Oc1cc(O)c2c(c1)O[C@H](c1cc(O)c(O)c(O)c1)[C@H](O)C2`, the Kd is > 4 mM (inactive).

As for `N#Cc1sc2nc3c(c(-c4cccnc4)c2c1N)CCC3`, the Kd is > 4 mM (inactive).

With `COC(=O)c1cncn1C`, the Kd is > 4 mM (inactive).

Regarding `NC(=O)CSc1nnc2ccc(-c3ccccn3)nn12`, the Kd is > 4 mM (inactive).

Consider `Cc1cc(NC(=O)CS(=O)(=O)c2ccccc2)no1`, for which the Kd is > 4 mM (inactive).

As to `O=C(c1ccco1)N1CCn2c1nc1ccccc12`, the Kd was > 4 mM (inactive).

With `COc1cc(NC(=O)c2ccccc2)c(C)cc1N`, the Kd is > 4 mM (inactive).

With `NC(=O)CSc1ccc(-c2ccccc2)nn1`, the Kd was > 4 mM (inactive).

Turning to `Cc1cc(=O)n2nc(-c3ccccc3)sc2n1`, the Kd is > 4 mM (inactive).

With `CCOC(=O)c1c(C)cc(O)c(C=O)c1O`, the Kd was > 4 mM (inactive).

As to `O=C(O)CC1C(=O)NCCN1Cc1cccs1` (centres undefined), the Kd is > 4 mM (inactive).

Turning to `NC(=O)CS(=O)(=O)c1ccc2ccccc2c1`, the Kd is > 4 mM (inactive).

For `CCOc1ccccc1C(=O)NC1=NCCS1`, the Kd is > 4 mM (inactive).

For the compound `CCNC(=S)Nc1c(C)n(C)n(-c2ccccc2)c1=O`, the Kd was > 4 mM (inactive).

For the compound `COc1cc2nc[nH]c(=O)c2cc1OC`, the Kd was > 4 mM (inactive).

Consider `N#Cc1cc2c(nc1SCc1ccncc1)CCC2`, for which the Kd is > 4 mM (inactive).

`NC(=O)CC1Sc2ccccc2NC1=O` (centres undefined): the Kd was > 4 mM (inactive).

Regarding `O=C(Nc1nc2ccccc2s1)c1ccc(=O)[nH]n1`, the Kd was > 4 mM (inactive).

`CSc1nc(NC(C)(C)C)nc(N2CCOCC2)n1`: the Kd was > 4 mM (inactive).

`O=c1[nH]cc(NCc2ccco2)c(=O)[nH]1`: the Kd was > 4 mM (inactive).

In the case of `CC(=O)Oc1cc2c(C(C)=O)coc2c2ccccc12`, the Kd was > 4 mM (inactive).

With `Cn1ncc(SCc2ccco2)c(Cl)c1=O`, the Kd is > 4 mM (inactive).

As for `C[C@H]1C[C@@H](O)[C@]2(O)[C@@]13CC(=O)OC[C@@]2(C)[C@](C)(O)C(=O)C3`, the Kd was > 4 mM (inactive).

Turning to `COc1ccc2c(c1)C(NC(C)=O)C(=O)N2C` (centres undefined), the Kd was > 4 mM (inactive).

Regarding `O=C(Nc1ccon1)c1ccc2c(c1)OCO2`, the Kd was > 4 mM (inactive).

Turning to `OCCNC(=S)Nc1ccc(F)cc1`, the Kd was > 4 mM (inactive).

`Cc1nn2c(=O)nc3sc4c(c3c2[nH]c1=O)CCCC4`: the Kd is > 4 mM (inactive).

Regarding `CNC(=O)C1COc2ccccc2O1` (centres undefined), the Kd was > 4 mM (inactive).

As for `Cc1ccccc1N1C(=O)CC(=O)NC1=O`, the Kd was > 4 mM (inactive).

`Cn1c([O-])c([N+](C)(C)C)c(=O)n(C)c1=O`: the Kd was > 4 mM (inactive).

Turning to `O=C(O)c1csc(-c2cccnc2)n1`, the Kd is > 4 mM (inactive).

With `O=C1C=C(Nc2ccc(O)cc2)c2ccccc2C1=O`, the Kd was > 4 mM (inactive).

For `Nc1n[nH]c(=S)n1-c1ccccc1`, the Kd is > 4 mM (inactive).

Regarding `O=C(Nn1c(=S)[nH]c2ccccc2c1=O)c1ccncc1`, the Kd is > 4 mM (inactive).

Consider `CC1(C)NC(=O)N(CCOc2ccc3c(c2)CCC3)C1=O`, for which the Kd was > 4 mM (inactive).

Take `NC(=O)c1cccc2c(=O)oc3ccccc3c12`: the Kd was > 4 mM (inactive).

As for `CC(C)C(=O)NCC(c1ccco1)N1CCOCC1` (centres undefined), the Kd is > 4 mM (inactive).

As to `CC(=O)c1cc2c(cc1O)OC(C)(C)C=C2`, the Kd was > 4 mM (inactive).

With `Cc1ccc(C(=O)N2CCC(C(N)=O)CC2)cc1C`, the Kd was > 4 mM (inactive).

Regarding `O=C(O[C@@H]1Cc2c(O)cc(O)cc2O[C@@H]1c1ccc(O)c(O)c1)c1cc(O)c(O)c(O)c1`, the Kd is > 4 mM (inactive).

As for `O=C1COc2cc(O)ccc21`, the Kd was > 4 mM (inactive).

As for `N/C(=N/O)C1COc2ccccc2O1` (centres undefined), the Kd is > 4 mM (inactive).

On to `Cc1cc(NC(=O)CSc2ccnc(=O)[nH]2)no1`, for which the Kd was > 4 mM (inactive).

`O=C(O)[C@H](O)[C@@](O)(Cc1ccc(O)cc1)C(=O)O`: the Kd is > 4 mM (inactive).

On to `Cc1nnc(-n2cnc3ccccc32)c2ccccc12`, for which the Kd was > 4 mM (inactive).

In the case of `NC(=O)c1ccc(NC(=O)c2cccnc2)cc1`, the Kd is > 4 mM (inactive).

In the case of `Nc1c(F)c(F)nc(F)c1F`, the Kd was > 4 mM (inactive).

Take `CC1=NCCc2c1[nH]c1cc(O)ccc21`: the Kd is > 4 mM (inactive).

As to `Cc1nc2ccccc2c(=O)n1NC(=O)C1CCCCC1`, the Kd is > 4 mM (inactive).

Consider `COc1cnn(Cc2ccccc2)c(=O)c1Cl`, for which the Kd is > 4 mM (inactive).

Consider `Cn1cnc2c1c(=O)[nH]c(=O)n2C`, for which the Kd is > 4 mM (inactive).

Regarding `S=C(NC1=NCCS1)Nc1ccccc1`, the Kd was > 4 mM (inactive).

For `CC1(C)Cc2nc(N3CCOCC3)c(C#N)cc2CO1`, the Kd was > 4 mM (inactive).

Consider `c1ccc2nc3c(nc2c1)CCc1nonc1-3`, for which the Kd is > 4 mM (inactive).

In the case of `NCc1csc(-c2cccs2)n1`, the Kd was > 4 mM (inactive).

Turning to `CCC(CCC(C)[C@H]1CCC2C3CC=C4C[C@@H](O)CC[C@]4(C)C3CC[C@@]21C)C(C)C` (some centres undefined), the Kd is > 4 mM (inactive).

In the case of `O=CN1CCN(C(=O)c2ccccc2Cl)CC1`, the Kd is > 4 mM (inactive).

On to `CS(=O)(=O)Nc1ccccc1C(=O)c1ccccc1`, for which the Kd is > 4 mM (inactive).

Consider `N/N=C/c1cccnc1`, for which the Kd was > 4 mM (inactive).

As to `COC(=O)c1ccc(NC(=O)CC2NCCNC2=O)cc1` (centres undefined), the Kd was > 4 mM (inactive).

For the compound `Cc1ccc(CCC(N)=O)o1`, the Kd was > 4 mM (inactive).

For `CSc1cccc(NC(=O)c2c(Cl)cnn2C)c1`, the Kd was > 4 mM (inactive).

Take `O=C(O)c1ccc(-n2cncn2)cc1`: the Kd is > 4 mM (inactive).

`CCOC(=O)c1cc(C)[nH]n1`: the Kd was > 4 mM (inactive).
